From paper PMC4076047 (Nature chemical biology, 2014)
Structures can show the parent of a compound that is named as a salt.

Target: Vps35 (retromer core complex Vps35–Vps29–Vps26) (Homo sapiens, UniProt Q96QK1+Q9UBQ0)
Experiment: microscale thermophoresis
Type: binding

- Kd: ~5 µM
SMILES: N=C(N)SCc1ccc(CSC(=N)N)s1 [compound 1, thiophene-2,5-diylbis(methylene) dicarbamimidothioate dihydrochloride]
